Results reported in PMC6792352, “Limited Chemical Structural Diversity Found to Modulate Thyroid Hormone Receptor in the Tox21 Chemical Library” (Environmental Health Perspectives, 2019).
Where a name gives a salt, the structure may show the parent alone.

Test: in vitro
Conditions: rat, gh3-tre-luc cells, AC50 (uM) modified / 1000

Row | SMILES | CC50 at 24 h
1 | Cc1ccccc1Cl [2-Chlorotoluene] | > 90 µM
2 | CCOC(=O)COc1ccc2c(=O)cc(-c3ccccc3)oc2c1 [Efloxate] | > 50 µM
3 | O=C(O)C(O)[C@H](O)[C@@H](O)[C@H](O)[C@H](O)CO (stereo partly drawn) [D-Gluco-heptonic acid, monosodium salt] | > 90 µM
4 | O=C1c2ccccc2C(=O)c2ccccc21 [Anthraquinone] | > 50 µM
5 | O=C(O)CNC(=O)c1ccccc1 [Hippuric acid] | > 50 µM
6 | OC(CCN1CCCC1)(c1ccccc1)C1CCCCC1 (stereo not drawn) [Procyclidine hydrochloride] | 10.6 µM
7 | O=CC=O [Glyoxal] | > 90 µM
8 | CC(=O)Nc1cccc(N)c1 [3-Aminoacetanilide] | > 90 µM
9 | COCC1=C(C(=O)OC(C)OC(=O)OC(C)C)N2C(=O)[C@@H](NC(=O)/C(=N\OC)c3csc(N)n3)[C@H]2SC1 (stereo partly drawn) [Cefpodoxime proxetil] | > 50 µM
10 | O=C(NC(=O)c1c(F)cccc1F)Nc1ccc(OC(F)(F)C(F)OC(F)(F)F)c(Cl)c1 (stereo not drawn) [Novaluron] | > 50 µM
11 | Cc1cccc(C)c1NC(=O)c1cc(S(N)(=O)=O)c(Cl)cc1O [Xipamide] | > 50 µM
12 | CC(=O)NS(=O)(=O)c1ccc(N)cc1 [Sulfacetamide] | > 90 µM
13 | CN(C)CCCO[C@@H]1[C@H]2OC(C)(C)O[C@H]2O[C@@H]1[C@H](O)CO [Amiprilose hydrochloride] | > 50 µM
14 | C=CC[N+](C)(C)CC=C [Diallyldimethylammonium chloride] | > 90 µM
15 | Cc1cc(C)nc(Nc2ccccc2)n1 [Pyrimethanil] | > 90 µM
16 | COc1ccc2cc(CCC(C)=O)ccc2c1 [Nabumetone] | > 20 µM
17 | CC1(C)S[C@@H]2[C@H](NC(=O)C(C(=O)Oc3ccc4c(c3)CCC4)c3ccccc3)C(=O)N2[C@H]1C(=O)O (stereo partly drawn) [Carbenicillin indanyl] | > 50 µM
18 | CCOC(=O)NCCOc1ccc(Oc2ccccc2)cc1 [Fenoxycarb] | > 90 µM
19 | CCNC(=O)/C=C/c1cccc(Br)c1 [Cinromide] | > 50 µM
20 | C=C(C)C(=O)OCCOC1CC2CC1C1C=CCC21 (stereo not drawn) [(Dicyclopentadienyloxy)ethyl methacrylate] | > 100 µM
21 | C[N+]1(C)[C@@H]2CC[C@H]1CC(OC(=O)c1c[nH]c3ccccc13)C2 (stereo partly drawn) [Tropisetron methyliodide] | > 50 µM
22 | Nc1ccc(N)c(Cl)c1 [2-Chloro-1,4-diaminobenzene sulfate] | > 90 µM
23 | NCCOCCO [2-(2-Aminoethoxy)ethanol] | > 90 µM
24 | CCCCNc1ccc(C(=O)OCCN(C)C)cc1 [Tetracaine hydrochloride] | > 20 µM

Row | SMILES | CC50 at 24 h
25 | Cc1c(C)c([N+](=O)[O-])c(C(C)(C)C)c([N+](=O)[O-])c1C [1-tert-Butyl-3,4,5-trimethyl-2,6-dinitrobenzene] | 73.9 µM
26 | CC1(C)S[C@@H]2[C@H](N=CN3CCCCCC3)C(=O)N2[C@H]1C(=O)O [Amdinocillin] | > 50 µM
27 | COCCCOCCCOC [Dipropylene glycol dimethyl ether] | > 90 µM
28 | CC(C)=CCC/C(C)=C/C(=O)O [Geranic acid] | > 90 µM
29 | C[C@]12C=CC(=O)C=C1CC[C@H]1[C@@H]3C[C@@H](O)[C@](O)(C(=O)CO)[C@@]3(C)C[C@H](O)[C@@]12F [Triamcinolone] | > 90 µM
30 | CCCCOC(=O)C(C)Oc1ccc(Oc2ccc(C(F)(F)F)cn2)cc1 (stereo not drawn) [Fluazifop-butyl] | > 90 µM
31 | CC(C)CCCCCOC(=O)c1ccccc1C(=O)OCCCCCC(C)C [Diisooctyl phthalate] | > 90 µM
32 | CCN=C1C=CC(=C(c2ccc(N(CC)CC)cc2)c2ccc(N(CC)CC)cc2)c2ccccc21 [Basic Blue 7] | 0.714 µM
33 | CC(=O)OC[C@H]1O[C@@H](O[C@H]2[C@H](O)[C@@H](OC(=O)c3ccccc3C(=O)O)[C@H](O)O[C@@H]2COC(C)=O)[C@H](O)[C@@H](OC(=O)c2ccccc2C(=O)O)[C@@H]1O [Cellulose acetate phthalate] | > 50 µM
34 | CCCC(C)C1(CC)C(=O)NC(=S)NC1=O (stereo not drawn) [Thiopental sodium] | > 50 µM
35 | CC(=O)Nc1ccc(C(=O)O)cc1 [4-Acetamidobenzoic acid] | > 90 µM
36 | CCC(=O)C(CC(C)N(C)C)(c1ccccc1)c1ccccc1 (stereo not drawn) [Methadone hydrochloride] | 28.5 µM
37 | COC(=O)c1ccccc1Cl [Methyl 2-chlorobenzoate] | > 90 µM
38 | CC(=O)Oc1ccc([N+](=O)[O-])cc1CCl [2-Acetoxy-5-nitrobenzyl chloride] | 67 µM
39 | CCCC1CCOC(C)S1 (stereo not drawn) [2-Methyl-4-propyl-1,3-oxathiane] | > 90 µM
40 | COCC(=O)O [Methoxyacetic acid] | > 90 µM
41 | CCCOC(=O)c1ccccc1O [Propyl salicylate] | > 50 µM
42 | CCCCC(CC)COC(=O)CC#N (stereo not drawn) [2-Ethylhexyl cyanoacetate] | > 90 µM
43 | CC(C)C(C(=O)OC(C#N)c1cccc(Oc2ccccc2)c1)c1ccc(Cl)cc1 (stereo not drawn) [Fenvalerate] | > 90 µM
44 | C[C@@H](C1=C(CCN(C)C)Cc2ccccc21)c1ccccn1 [(S)-(+)-Dimethindene maleate] | 42.1 µM
45 | O=C(NC(O)C(Cl)(Cl)Cl)NC(O)C(Cl)(Cl)Cl (stereo not drawn) [Dichloralurea] | > 50 µM
46 | CC(C)CC(=O)CC(C)C [Diisobutyl ketone] | > 90 µM
47 | CC(C)NCC(O)COc1ccc(CCOCC2CC2)cc1 (stereo not drawn) [Betaxolol] | > 50 µM
48 | CCc1ccccc1N [2-Ethylaniline] | > 90 µM

Row | SMILES | CC50 at 24 h
49 | CC(CC=O)c1ccccc1 (stereo not drawn) [3-Phenylbutyraldehyde] | > 90 µM
50 | COc1ccccc1N1CCN(CCCC(=O)c2ccc(F)cc2)CC1 [Fluanisone] | > 50 µM
51 | CCCOCCOCCO [2-(2-Propoxyethoxy)ethanol] | > 90 µM
52 | CCCCCC(=O)CC [3-Octanone] | > 90 µM
53 | Nc1nc(N)nc(-c2ccccc2)n1 [6-Phenyl-1,3,5-triazine-2,4-diamine] | > 90 µM
54 | CCCCC(CC)COC(=O)c1ccc(C(=O)OCC(CC)CCCC)cc1 (stereo not drawn) [Bis(2-ethylhexyl) terephthalate] | > 90 µM
55 | CN(C)CCCOc1nn(Cc2ccccc2)c2ccccc12 [Benzydamine hydrochloride] | 6.35 µM
56 | COc1cc(S(=O)(=O)Nc2ccccc2)c(OC)cc1N [4-Amino-2,5-dimethoxy-N-phenylbenzenesulfonamide] | > 90 µM
57 | CN(C)CCOC1=Cc2ccccc2Sc2ccc(Cl)cc21 [Zotepine] | 6.89 µM
58 | COc1ccccc1N1CCN(CCCCNC(=O)c2ccc(-c3ccc(C(C)=O)cc3)cc2)CC1 [GR 103691] | > 50 µM
59 | N#CC(Cl)Cl [Dichloroacetonitrile] | 72.9 µM
60 | CC(C)(Oc1ccc(C2CC2(Cl)Cl)cc1)C(=O)O (stereo not drawn) [Ciprofibrate] | > 90 µM
61 | CN(C)CCOCCO [2-[2-(Dimethylamino)ethoxy]ethanol] | > 90 µM
62 | CCCCCC/C(C=O)=C\c1ccccc1 [Hexyl cinnamic aldehyde] | > 90 µM
63 | O=C(OCCOCCOC(=O)c1ccccc1)c1ccccc1 [Diethylene glycol dibenzoate] | > 90 µM
64 | C[C@]12CCC(=O)C[C@@H]1CC[C@@H]1[C@@H]2CC[C@]2(C)C=CC[C@@H]12 [Androstenone] | > 50 µM
65 | CCCCC(CC)COCCO (stereo not drawn) [2-(2-Ethylhexyloxy)ethanol] | > 90 µM
66 | Nc1nc(-c2ccccc2)cs1 [2-Amino-4-phenylthiazole hydrobromide hydrate] | > 90 µM
67 | COc1ccc(S(=O)(=O)N2C(=O)[C@@](c3ccccc3OC)(N3C[C@H](O)C[C@H]3C(=O)N(C)C)c3cc(Cl)ccc32)c(OC)c1 [Nelivaptan] | 34.9 µM
68 | CC(=O)OC1CCC(C(C)(C)C)CC1 (stereo not drawn) [4-tert-Butylcyclohexyl acetate] | > 90 µM
69 | OC[C@H]1O[C@@](CO)(O[C@H]2O[C@H](CO)[C@@H](O)[C@H](O)[C@H]2O)[C@@H](O)[C@@H]1O [Sucrose] | > 90 µM
70 | C=CCCCCCCCCCCCCCCCC [1-Octadecene] | > 5 µM

Same assay, conditions: rat, gh3-tre-luc cells, AC50 (uM) modified / 1000, Tox21_110001=Tox21_110303; viability, 1 nM T3 present, 24 h

Row | SMILES | CC50 at 24 h
71 | Cc1cccc(C)c1N=C1NCCCS1 [Xylazine] | > 50 µM

Same assay, conditions: rat, gh3-tre-luc cells, AC50 (uM) modified / 1000, Tox21_110001=Tox21_112447; viability, 1 nM T3 present, 24 h

Row | SMILES | CC50 at 24 h
72 | Cc1ccccc1-n1c(CF)nc2ccc(N)cc2c1=O [Afloqualone] | > 50 µM

Same assay, conditions: rat, gh3-tre-luc cells, AC50 (uM) modified / 1000, Tox21_110001=Tox21_112820; viability, 1 nM T3 present, 24 h

Row | SMILES | CC50 at 24 h
73 | CCC(N)Cc1c[nH]c2ccccc12 (stereo not drawn) [Etryptamine acetate] | > 100 µM

Same assay, conditions: rat, gh3-tre-luc cells, AC50 (uM) modified / 1000, Tox21_110001=Tox21_200200; viability, 1 nM T3 present, 24 h

Row | SMILES | CC50 at 24 h
74 | C=CCO [Allyl alcohol] | > 100 µM

Same assay, conditions: rat, gh3-tre-luc cells, AC50 (uM) modified / 1000, Tox21_110001=Tox21_200666; viability, 1 nM T3 present, 24 h

Row | SMILES | CC50 at 24 h
75 | NNC(=O)c1cccnc1 [Nicotinic acid hydrazide] | > 90 µM

Same assay, conditions: rat, gh3-tre-luc cells, AC50 (uM) modified / 1000, Tox21_110001=Tox21_202411; viability, 1 nM T3 present, 24 h

Row | SMILES | CC50 at 24 h
76 | CC(C)CON=O [Isobutyl nitrite] | > 90 µM

Same assay, conditions: rat, gh3-tre-luc cells, AC50 (uM) modified / 1000, Tox21_110001=Tox21_300616; viability, 1 nM T3 present, 24 h

Row | SMILES | CC50 at 24 h
77 | O=C(O)C(F)(F)C(F)(F)C(F)(F)C(F)(F)C(F)(F)C(F)(F)F [Perfluoroheptanoic acid] | > 90 µM

Same assay, conditions: rat, gh3-tre-luc cells, AC50 (uM) modified / 1000, Tox21_110001=Tox21_301748; viability, 1 nM T3 present, 24 h

Row | SMILES | CC50 at 24 h
78 | CN(C)C(=O)Nc1cccc(OC(=O)NC(C)(C)C)c1 [Karbutilate] | > 90 µM

Same assay, conditions: rat, gh3-tre-luc cells, AC50 (uM) modified / 1000, Tox21_110001=Tox21_302159; viability, 1 nM T3 present, 24 h

Row | SMILES | CC50 at 24 h
79 | O=C(Cc1ccccc1)c1ccccc1 [1,2-Diphenylethanone] | > 90 µM

Same assay, conditions: rat, gh3-tre-luc cells, AC50 (uM) modified / 1000, Tox21_110001=Tox21_302863; viability, 1 nM T3 present, 24 h

Row | SMILES | CC50 at 24 h
80 | CC(C)CON=O [Isobutyl nitrite] | > 30 µM

Same assay, conditions: rat, gh3-tre-luc cells, AC50 (uM) modified / 1000, Tox21_110001=Tox21_303507; viability, 1 nM T3 present, 24 h

Row | SMILES | CC50 at 24 h
81 | C=CCO [Allyl alcohol] | > 90 µM
